Experiments:
Test in all cases: combination Emax (second highest fraction inhibited in the dose matrix, 72 h); higher = more inhibition; extreme values may be limits of the assay
KS-1 (Glioblastoma) = test system: KS-1 (Glioblastoma)
Summary of the method: (§1)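 After 24 hours at 37°C and 5% CO2 in 1536-well plates, cells in DMEM/F12 or RPMI plus 10% FBS received two-drug dose matrices for 72 hours. Viability came from CellTiter-Glo 2.0 luminescence and was scaled as inhibition, anchored at 0 by vehicle wells and at 1 by blank wells. Combination Emax is taken as the second-highest inhibition in the matrix, and Bliss excess as the observed combination effect less EA + EB − EA·EB, with EA and EB the single-agent effects.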

[1] = test system: NCI-H1568 (Lung Adenocarcinoma)
Summary of the method: as §1

[2] = test system: SNU-16 (Gastric Carcinoma)
Summary of the method: as §1

GAMG (Glioblastoma) = test system: GAMG (Glioblastoma)
Summary of the method: as §1

[3] = test system: CAL-33 (Oral Cavity Carcinoma)
Summary of the method: as §1

[4] = test system: NCI-H209 (Small Cell Lung Carcinoma)
Summary of the method: as §1

BE2-M17 (Neuroblastoma) = test system: BE2-M17 (Neuroblastoma)
Summary of the method: as §1

[5] = test system: LCLC-97TM1 (Non-Small Cell Lung Carcinoma)
Summary of the method: as §1

[6] = test system: OV-56 (Ovarian Carcinoma)
Summary of the method: as §1

[7] = test system: NCI-H524 (Small Cell Lung Carcinoma)
Summary of the method: as §1

[8] = test system: HuH-7 (Hepatocellular Carcinoma)
Summary of the method: as §1

[9] = test system: SW1710 (Bladder Carcinoma)
Summary of the method: as §1

MPP-89 (Mesothelioma) = test system: MPP-89 (Mesothelioma)
Summary of the method: as §1

[10] = test system: KYAE-1 (Esophageal Adenocarcinoma)
Summary of the method: as §1

[11] = test system: Detroit562 (Head and Neck Carcinoma)
Summary of the method: as §1

[12] = test system: YAPC (Pancreatic Carcinoma)
Summary of the method: as §1

NCI-H2722 (Mesothelioma) = test system: NCI-H2722 (Mesothelioma)
Summary of the method: as §1

[13] = test system: BE-13 (T-Lymphoblastic Leukemia)
Summary of the method: as §1

NCI-H2052 (Mesothelioma) = test system: NCI-H2052 (Mesothelioma)
Summary of the method: as §1

[14] = test system: KMRC-20 (Kidney Carcinoma)
Summary of the method: as §1

Row | Structure (SMILES) | combination Emax (KS-1 (Glioblastoma)) | combination Emax [1] | combination Emax [2] | combination Emax (GAMG (Glioblastoma)) | combination Emax [3] | combination Emax [4] | combination Emax (BE2-M17 (Neuroblastoma)) | combination Emax [5] | combination Emax [6] | combination Emax [7] | combination Emax [8] | combination Emax [9] | combination Emax (MPP-89 (Mesothelioma)) | combination Emax [10] | combination Emax [11] | combination Emax [12] | combination Emax (NCI-H2722 (Mesothelioma)) | combination Emax [13] | combination Emax (NCI-H2052 (Mesothelioma)) | combination Emax [14]
1 | Cc1c2c(nn1C)CSCc1cc(n(C)n1)CSc1cc(c3ccccc3c1)OCCCc1c(C(=O)O)n(C)c3c-2c(Cl)ccc13 [AZD5991] + C[C@@H](Nc1cc(F)cc(F)c1)c1cc(C(=O)N(C)C)cc2c(=O)cc(N3CCOCC3)oc12 [AZD8186] (first compound max 1 µM, 7x7, partner max 3 µM) | 0.416 | 0.225 | 0.986 | 0.585 | 0.28 | 0.384 | 0.92 | 0.221 | 0.212 | 0.436 | 0.208 | 0.307 | 0.22 | 0.209 | 0.305 | 0.182 | 0.197 | 0.384 | 0.374 | 0.262
2 | COc1cccc(OCCCN)c1-c1cc(Nc2cnc(C#N)cn2)n[nH]1 [Prexasertib] + Cc1cc2ncnn2cc1Nc1ncc2c(n1)n(C1CCOCC1)c(=O)n2C [AZD7648] (first compound max 1 µM, 7x7, partner max 10 µM) | 0.546 | 0.54 | 0.998 | 0.777 | 0.816 | 0.974 | 0.983 | 0.938 | 0.88 | 0.988 | 0.329 | 0.728 | 0.734 | 0.467 | 0.922 | 0.585 | 0.216 | 0.952 | 0.649 | 0.858
3 | CC(=O)c1c(C)c2cnc(Nc3ccc(N4CCNCC4)cn3)nc2n(C2CCCC2)c1=O [Palbociclib] + CC1(C)CCC(CN2CCN(c3ccc(C(=O)NS(=O)(=O)c4ccc(NCC5CCOCC5)c([N+](=O)[O-])c4)c(Oc4cnc5[nH]ccc5c4)c3)CC2)=C(c2ccc(Cl)cc2)C1 [Venetoclax] (first compound max 10 µM, 7x7, partner max 1 µM) | 0.348 | 0.423 | 0.699 | 0.231 | 0.113 | 0.921 | 0.386 | 0.176 | 0.117 | 0.685 | 0.0832 | 0.246 | 0.0837 | 0.132 | 0.543 | 0.165 | 0.118 | 0.588 | 0.133 | 0.214

Source: the supplement of paper PMC11061612
